The values that follow come from patent US20200390753A1, “COMBINATION THERAPY USING ENANTIOPURE, OXY-SUBSTITUTED, DEUTERIUM-ENRICHED 5-(BENZYL)-5-DEUTERO-THIAZOLIDINE-2,4-DIONES FOR TREATMENT OF MEDICAL DISORDERS” (priority 2015, published 2020).

Read-outs that look alike come from different tables or passages of the source.

For data set [1] the following is noted: for k RS: enantiomerization rate constant h-R-pio to h-S-pio / k SR: enantiomerization rate constant h-S-pio to h-R-pio: 5 M (sic).
For data set [2] the following is noted: for k RS: enantiomerization rate constant h-R-pio to h-S-pio / k SR: enantiomerization rate constant h-S-pio to h-R-pio: C57BL/6, mouse, 5 M (sic).
Data set [3] has as its target T1, human recombinant monoamine oxidase B (Homo sapiens, UniProt P27338).
T1 sequence (P27338 1-520): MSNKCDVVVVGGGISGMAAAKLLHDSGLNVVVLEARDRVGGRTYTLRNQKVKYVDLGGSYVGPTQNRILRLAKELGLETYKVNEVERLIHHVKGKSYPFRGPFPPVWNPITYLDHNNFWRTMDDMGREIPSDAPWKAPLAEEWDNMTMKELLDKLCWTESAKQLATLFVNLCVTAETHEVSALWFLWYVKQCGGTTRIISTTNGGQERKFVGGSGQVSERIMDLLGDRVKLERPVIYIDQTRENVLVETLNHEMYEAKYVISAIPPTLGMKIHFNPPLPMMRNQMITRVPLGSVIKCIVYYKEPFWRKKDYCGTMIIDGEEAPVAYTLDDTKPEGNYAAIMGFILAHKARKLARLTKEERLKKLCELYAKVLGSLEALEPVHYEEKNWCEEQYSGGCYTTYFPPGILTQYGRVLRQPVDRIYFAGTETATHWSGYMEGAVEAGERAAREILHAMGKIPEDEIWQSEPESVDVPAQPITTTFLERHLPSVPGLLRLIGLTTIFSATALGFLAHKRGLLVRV
Nature of the data set: Monoamine oxidase B (MAO-B) inhibition, luminescence. Type of data set: biochemical. The procedure:
The mixtures were incubated at 22° C. for 5 min. Substrate (D-luciferin derivative) was added, and then the mixture was incubated at 37° C. for 60 min. The reaction was stopped by addition of the detection reagent containing luciferase. Luminescence was read after standing for 60 min at room temperature.
Results were expressed as a percentage of the luminescence of the control (enzyme+substrate). IC50 values were obtained by fitting experimental data (mean % luminescence as function of concentration) to the Hill equation with variable slope using non-linear regression analysis.

The subject of the next data set is C2C12 cells. In words: Mitochondrial respiration (mitochondrial stress test, maximal respiration) in C2C12 cells. In kind it is cell-based. To be noted: 30 µM for 15, 30, or 90 min, vs vehicle-treated cells; 10 mM sodium pyruvate. The text has this:
[…]. […] […].

A further data set has as its system db/db mice. In words: db/db mouse model of Type II diabetes, 10-day daily oral dosing. In kind it is in vivo. To be noted: oral daily 10 days, h-rac-pio 30 mg/kg; for decrease of cytokines IL-1p, IL-6, and TNF-α / decrease of serum amyloid A / effect on non-essential fatty acids (decrease compared with h-rac-pio) / effect on non-fasted blood glucose: d-R-pio 20 mg/kg; for effect on non-essential fatty acids (decrease compared with h-rac-pio) / effect on non-fasted blood glucose / effect on adiponectin: d-S-pio 20 mg/kg. How it is done:
Quantitative results were analyzed by statistical methods using, as appropriate, one- or two-way ANOVA or Kruskal-Wallis tests for differences followed by Sidak's, Dunnett's, or Dunn's post-test to determine differences vs. vehicle-treated control animals. All graphs were generated with GraphPad Prism version 6.0.2 (GraphPad Software, Inc., La Jolla, Calif.).

Data set [4] can be described thus: Body weight gain in male C57BL/6J mice on a standard diet. In kind it is in vivo. To be noted: twice daily oral gavage 11 days; overall daily dose h-rac-pio 30 mg/kg, d-S-pio 15 mg/kg, d-R-pio 15 mg/kg. The procedure:
Male C57BL/6J mice (about 28 g body weight) were acclimated singly-housed for one week to a reverse light/dark cycle with free access to water and standard maintenance diet. Animals were then handled daily for one week followed by another 7 days of twice daily dosing with vehicle (0.5% methylcellulose in water) by oral gavage. […] Body weights were measured twice daily, prior to each dosing, to adjust individual dosing volumes to actual body weights.

For `CCc1ccc(CCOc2ccc(C[C@@H]3SC(=O)NC3=O)cc2)nc1` [h-S-pio], in data set [1] (human), the “k RS: enantiomerization rate constant h-R-pio to h-S-pio” value is 0.434 h⁻¹ and the “k SR: enantiomerization rate constant h-S-pio to h-R-pio” value was 0.427 h⁻¹. In data set [2], the “k RS: enantiomerization rate constant h-R-pio to h-S-pio” value was determined as 0.792 h⁻¹ and the “k SR: enantiomerization rate constant h-S-pio to h-R-pio” value was 0.979 h⁻¹.
Taken in the same sequence, the figures for `CCc1ccc(CCOc2ccc(C[C@H]3SC(=O)NC3=O)cc2)nc1` [h-R-pio] were 0.447 h⁻¹, 0.439 h⁻¹, 0.694 h⁻¹ and 0.867 h⁻¹.
As to `[2H][C@]1(Cc2ccc(OCCc3ccc(CC)cn3)cc2)SC(=O)NC1=O` [d-R-pio, (R)-5-({p-[2-(5-Ethyl-2-pyridyl)ethoxy]phenyl}methyl)-(5-^2H)-1,3-thiazolidine-2,4-dione], the “difference in inhibition efficacy between d-R-pio and d-S-pio” value in data set [3] was “greater than 5 fold”. For the same compound, in the data set with C2C12 cells, the “effect on maximal respiration (oxygen consumption rate)” value (from here on “effect on maximal respiration”) was “inhibited maximal respiration”. Further, in the data set on db/db mice (vs vehicle), the “decrease of cytokines IL-1p, IL-6, and TNF-α” value was “trending”; the “decrease of serum amyloid A” value is “statistically significant”. In the data set with db/db mice, the “effect on non-essential fatty acids (decrease compared with h-rac-pio)” value is “a similar trend was observed” and the “effect on non-fasted blood glucose” value is listed as “decreased non-fasted blood glucose to approximately the same extent as h-rac-pio”. Moreover, the “percent body weight difference versus day 1, compared to vehicle” value in data set [4] is reported as “did not increase”.
With `[2H]C1(Cc2ccc(OCCc3ccc(CC)cn3)cc2)SC(=O)NC1=O` (racemic) [d-rac-pio], in data set [1] (human, plasma), the “t1/2 of h-R-pio (RS*) from averaged kRS” value stood at 96 min and the “t1/2 of h-S-pio (SR*) from averaged kSR” value is 96 min. Besides, in data set [2] (mouse, plasma), the “t1/2 of d-S-pio (k=kDSR+kDSS)” value is 36 min, the “t1/2 of h-R-pio (RS*) from averaged kRS” value was 54 min and the “t1/2 of h-S-pio (SR*) from averaged kSR” value worked out at 45 min.
For the compound `[2H][C@@]1(Cc2ccc(OCCc3ccc(CC)cn3)cc2)SC(=O)NC1=O` [d-S-pio, (S)-5-({p-[2-(5-Ethyl-2-pyridyl)ethoxy]phenyl}methyl)-(5-^2H)-1,3-thiazolidine-2,4-dione], in the data set with C2C12 cells, the “effect on maximal respiration” value is “no significant measurable effect”. In the data set with db/db mice, the “effect on non-essential fatty acids (decrease compared with h-rac-pio)” value is given as “a similar trend was observed” and the “effect on non-fasted blood glucose” value is listed as “decreased non-fasted blood glucose to approximately the same extent as h-rac-pio”. The effect on adiponectin entry in the data set with db/db mice (vs vehicle) is on record as “significantly increased”. Besides, in data set [4], the “percent body weight difference versus day 1, compared to vehicle” value is “statistically significant increase”. Besides, the “half-life of d-S-pio compared with h-S-pio” value in data set [1] (plasma) was “approximately the same as the half-life for h-S-pio”.
As to `CCc1ccc(CCOc2ccc(CC3SC(=O)NC3=O)cc2)nc1` (racemic) [h-rac-pio, rac-5-({p-[2-(5-Ethyl-2-pyridyl)ethoxy]phenyl}methyl)-1,3-thiazolidine-2,4-dione, reference compound], the “effect on maximal respiration” value with C2C12 cells was “inhibited maximal respiration”. Moreover, in the data set with db/db mice (vs vehicle), the “decrease of cytokines IL-1p, IL-6, and TNF-α” value is on record as “trending”; the “decrease of serum amyloid A” value is on record as “statistically significant”; the effect on adiponectin result is reported as “significantly increased”; the effect on insulin result was “significantly decreased”. In addition, the “percent body weight difference versus day 1, compared to vehicle” value in data set [4] is “statistically significant increase”.
